# How the values were obtained:
# Assay in all cases: Greenhouse whole-plant imazapir dose response (Example 8)
# Type in all cases: in vivo, Helianthus annuus
# [1] = test system: sunflower GIM 5-6 (Restorer Line, A122T); details: GIM5-6, 14 DAT
# Description: (§1) A greenhouse study was conducted to quantify and contrast the imazapir sensitivity of the mutants A122T and A205V in different genetic backgrounds at the whole plant level in sunflower. Seeds of the different sunflower lines that were used in this study were obtained under field conditions.
# (§2) Seeds were sown in Petri dishes and, after germination, plantlets were transplanted to pots of 10 cm of diameter in a potting media consisting of equal parts of vermiculite, soil and sand. Plants were grown in a greenhouse under natural light conditions supplemented with 400 W sodium halide lamps to provide a 16 hrs daylength. Day/night temperatures were 25 and 20° C., respectively. At the V2 stage 10 plants of each genotype were randomly assigned to each treatment consisting of […] imazapir doses (0, 40, 80, 160, 240, 320, 400 and 480 g ai/ha), and a zero-time biomass determination. Experiment was arranged as a randomized block design with a full factorial (sunflower line×treatment) arrangement of treatments and 10 replications.
# (§3) On the day of herbicide application ten plants of each genotype were cut at the cotyledonal node and dried at 60° C. for 48 hrs zero-time for dried weight determination. […] Height was determined as the distance between the cotyledonal node and the apex of each plant. For root biomass determination, each plant was taken from the pot and the potting media was washed out from the roots. Above ground biomass data from each line were converted to biomass accumulation after application by subtracting the appropriate average zero-time biomass from each sample. Dry biomass data were converted to percentages of the untreated control plants within each line to allow direct comparisons between groups.
# [2] = test system: sunflower GIM 5-7 (Manteiner Line, A205V); details: GIM5-7, 14 DAT
# Description: as §1, §2, §3
# [3] = test system: sunflower IB920 (Manteiner Line, A205V); details: 14 DAT
# Description: as §1, §2, §3
# [4] = test system: sunflower GM1606 (Manteiner Line, A122T); details: 14 DAT
# Description: as §1, §2, §3
# [5] = test system: sunflower TH1 (Hybrid, A205V); details: 14 DAT
# Description: as §1, §2, §3
smiles,measurement,setting,value
"CC(C)C1(C)N=C(c2ncccc2C(=O)O)NC1=O (centres unmarked) [imazapir, imazapyr]","biomass accumulation (dry biomass, % of untreated)",[1]; 0.5× (40 g ai/ha),100.0%
same,plant height (% of untreated),[1]; 0.5× (40 g ai/ha),100.0%
same,root dry weight (% of untreated),[1]; 0.5× (40 g ai/ha),100%
same,"biomass accumulation (dry biomass, % of untreated)",[1]; 1× (80 g ai/ha),96.4%
same,plant height (% of untreated),[1]; 1× (80 g ai/ha),100.0%
same,root dry weight (% of untreated),[1]; 1× (80 g ai/ha),88.0%
same,"biomass accumulation (dry biomass, % of untreated)",[1]; 2× (160 g ai/ha),97.7%
same,plant height (% of untreated),[1]; 2× (160 g ai/ha),99.1%
same,root dry weight (% of untreated),[1]; 2× (160 g ai/ha),90.0%
same,"biomass accumulation (dry biomass, % of untreated)",[1]; 3× (240 g ai/ha),95.8%
same,plant height (% of untreated),[1]; 3× (240 g ai/ha),98.1%
same,root dry weight (% of untreated),[1]; 3× (240 g ai/ha),98.0%
same,"biomass accumulation (dry biomass, % of untreated)",[1]; 4× (320 g ai/ha),90.8%
same,plant height (% of untreated),[1]; 4× (320 g ai/ha),91.0%
same,root dry weight (% of untreated),[1]; 4× (320 g ai/ha),80.0%
same,"biomass accumulation (dry biomass, % of untreated)",[1]; 5× (400 g ai/ha),81.9%
same,plant height (% of untreated),[1]; 5× (400 g ai/ha),94.3%
same,root dry weight (% of untreated),[1]; 5× (400 g ai/ha),80.0%
same,"biomass accumulation (dry biomass, % of untreated)",[1]; 6× (480 g ai/ha),78.0%
same,plant height (% of untreated),[1]; 6× (480 g ai/ha),85.8%
same,root dry weight (% of untreated),[1]; 6× (480 g ai/ha),65.8%
same,"biomass accumulation (dry biomass, % of untreated)",[2]; 0.5× (40 g ai/ha),92.9%
same,plant height (% of untreated),[2]; 0.5× (40 g ai/ha),79.1%
same,root dry weight (% of untreated),[2]; 0.5× (40 g ai/ha),79.2%
same,"biomass accumulation (dry biomass, % of untreated)",[2]; 1× (80 g ai/ha),75.1%
same,plant height (% of untreated),[2]; 1× (80 g ai/ha),76.7%
same,root dry weight (% of untreated),[2]; 1× (80 g ai/ha),56.3%
same,"biomass accumulation (dry biomass, % of untreated)",[2]; 2× (160 g ai/ha),55.1%
same,plant height (% of untreated),[2]; 2× (160 g ai/ha),57.7%
same,root dry weight (% of untreated),[2]; 2× (160 g ai/ha),40.6%
same,"biomass accumulation (dry biomass, % of untreated)",[2]; 3× (240 g ai/ha),45.6%
same,plant height (% of untreated),[2]; 3× (240 g ai/ha),55.3%
same,root dry weight (% of untreated),[2]; 3× (240 g ai/ha),40.2%
same,"biomass accumulation (dry biomass, % of untreated)",[2]; 4× (320 g ai/ha),31.8%
same,plant height (% of untreated),[2]; 4× (320 g ai/ha),27.3%
same,root dry weight (% of untreated),[2]; 4× (320 g ai/ha),34.0%
same,"biomass accumulation (dry biomass, % of untreated)",[2]; 5× (400 g ai/ha),34.2%
same,plant height (% of untreated),[2]; 5× (400 g ai/ha),37.2%
same,root dry weight (% of untreated),[2]; 5× (400 g ai/ha),48.5%
same,"biomass accumulation (dry biomass, % of untreated)",[2]; 6× (480 g ai/ha),36.8%
same,plant height (% of untreated),[2]; 6× (480 g ai/ha),30.0%
same,root dry weight (% of untreated),[2]; 6× (480 g ai/ha),43.1%
same,"biomass accumulation (dry biomass, % of untreated)",[3]; 0.5× (40 g ai/ha),93.9%
same,plant height (% of untreated),[3]; 0.5× (40 g ai/ha),96.2%
same,root dry weight (% of untreated),[3]; 0.5× (40 g ai/ha),94.0%
same,"biomass accumulation (dry biomass, % of untreated)",[3]; 1× (80 g ai/ha),87.9%
same,plant height (% of untreated),[3]; 1× (80 g ai/ha),80.0%
same,root dry weight (% of untreated),[3]; 1× (80 g ai/ha),89.6%
same,"biomass accumulation (dry biomass, % of untreated)",[3]; 2× (160 g ai/ha),58.8%
same,plant height (% of untreated),[3]; 2× (160 g ai/ha),61.5%
same,root dry weight (% of untreated),[3]; 2× (160 g ai/ha),50.7%
same,"biomass accumulation (dry biomass, % of untreated)",[3]; 3× (240 g ai/ha),46.4%
same,plant height (% of untreated),[3]; 3× (240 g ai/ha),40.9%
same,root dry weight (% of untreated),[3]; 3× (240 g ai/ha),37.3%
same,"biomass accumulation (dry biomass, % of untreated)",[3]; 4× (320 g ai/ha),35.5%
same,plant height (% of untreated),[3]; 4× (320 g ai/ha),27.9%
same,root dry weight (% of untreated),[3]; 4× (320 g ai/ha),32.8%
same,plant height (% of untreated),[3]; 5× (400 g ai/ha),30.0%
same,root dry weight (% of untreated),[3]; 5× (400 g ai/ha),25.4%
same,"biomass accumulation (dry biomass, % of untreated)",[3]; 6× (480 g ai/ha),29.4%
same,root dry weight (% of untreated),[3]; 6× (480 g ai/ha),19.4%
same,"biomass accumulation (dry biomass, % of untreated)",[4]; 0.5× (40 g ai/ha),100.0%
same,plant height (% of untreated),[4]; 0.5× (40 g ai/ha),97.0%
same,root dry weight (% of untreated),[4]; 0.5× (40 g ai/ha),100%
same,"biomass accumulation (dry biomass, % of untreated)",[4]; 1× (80 g ai/ha),100.0%
same,plant height (% of untreated),[4]; 1× (80 g ai/ha),95.7%
same,root dry weight (% of untreated),[4]; 1× (80 g ai/ha),100.0%
same,"biomass accumulation (dry biomass, % of untreated)",[4]; 2× (160 g ai/ha),97.6%
same,plant height (% of untreated),[4]; 2× (160 g ai/ha),95.2%
same,root dry weight (% of untreated),[4]; 2× (160 g ai/ha),92.5%
same,"biomass accumulation (dry biomass, % of untreated)",[4]; 3× (240 g ai/ha),95.4%
same,plant height (% of untreated),[4]; 3× (240 g ai/ha),95.7%
same,root dry weight (% of untreated),[4]; 3× (240 g ai/ha),85.2%
same,"biomass accumulation (dry biomass, % of untreated)",[4]; 4× (320 g ai/ha),90.5%
same,plant height (% of untreated),[4]; 4× (320 g ai/ha),94.1%
same,root dry weight (% of untreated),[4]; 4× (320 g ai/ha),87.0%
same,"biomass accumulation (dry biomass, % of untreated)",[4]; 5× (400 g ai/ha),85.3%
same,plant height (% of untreated),[4]; 5× (400 g ai/ha),94.3%
same,root dry weight (% of untreated),[4]; 5× (400 g ai/ha),88.1%
same,"biomass accumulation (dry biomass, % of untreated)",[4]; 6× (480 g ai/ha),83.0%
same,plant height (% of untreated),[4]; 6× (480 g ai/ha),91.4%
same,root dry weight (% of untreated),[4]; 6× (480 g ai/ha),69.5%
same,Phytotoxicity Index,[5]; 0.5× (40 g ai/ha),0
same,"biomass accumulation (dry biomass, % of untreated)",[5]; 0.5× (40 g ai/ha),95.0%
same,plant height (% of untreated),[5]; 0.5× (40 g ai/ha),99.5%
same,root dry weight (% of untreated),[5]; 0.5× (40 g ai/ha),79.4%
same,Phytotoxicity Index,[5]; 1× (80 g ai/ha),0
same,"biomass accumulation (dry biomass, % of untreated)",[5]; 1× (80 g ai/ha),89.6%
same,plant height (% of untreated),[5]; 1× (80 g ai/ha),99.5%
same,root dry weight (% of untreated),[5]; 1× (80 g ai/ha),70.7%
same,Phytotoxicity Index,[5]; 2× (160 g ai/ha),1.8
same,"biomass accumulation (dry biomass, % of untreated)",[5]; 2× (160 g ai/ha),75.5%
same,plant height (% of untreated),[5]; 2× (160 g ai/ha),78.6%
same,root dry weight (% of untreated),[5]; 2× (160 g ai/ha),69.6%
same,Phytotoxicity Index,[5]; 3× (240 g ai/ha),6.4
same,"biomass accumulation (dry biomass, % of untreated)",[5]; 3× (240 g ai/ha),60.4%
same,plant height (% of untreated),[5]; 3× (240 g ai/ha),48.4%
same,root dry weight (% of untreated),[5]; 3× (240 g ai/ha),42.3%
same,Phytotoxicity Index,[5]; 4× (320 g ai/ha),8.0
same,"biomass accumulation (dry biomass, % of untreated)",[5]; 4× (320 g ai/ha),46.5%
same,plant height (% of untreated),[5]; 4× (320 g ai/ha),28.9%
same,root dry weight (% of untreated),[5]; 4× (320 g ai/ha),38.6%
same,Phytotoxicity Index,[5]; 5× (400 g ai/ha),8.9
same,"biomass accumulation (dry biomass, % of untreated)",[5]; 5× (400 g ai/ha),38.9%
same,plant height (% of untreated),[5]; 5× (400 g ai/ha),25.3%
same,root dry weight (% of untreated),[5]; 5× (400 g ai/ha),34.7%
same,Phytotoxicity Index,[5]; 6× (480 g ai/ha),9.0
same,"biomass accumulation (dry biomass, % of untreated)",[5]; 6× (480 g ai/ha),33.9%
same,plant height (% of untreated),[5]; 6× (480 g ai/ha),27.1%
same,root dry weight (% of untreated),[5]; 6× (480 g ai/ha),23.1%

# Source: patent publication US20150176022A1, “HERBICIDE-RESISTANT SUNFLOWER PLANTS, POLYNUCLEOTIDES ENCODING HERBICIDE=RESISTANT ACETO HYDROXY ACID SYNTHASE LARGE SUBUNIT PROTEINS, AND METHODS OF USE” (priority 2013, published 2015)
